Laboratory results from patent US12139520B2 (priority 2020, dated 2024).
Bridge positions count the residues as written; N and C are the ends. Square brackets hold non-standard residues; d marks the D form. Peptide text beside a SMILES is read from it. Hyp = O=C(O)[C@@H]1C[C@@H](O)CN1; Cit = NC(=O)NCCC[C@H](N)C(=O)O

Key:
[1] = Physical stability of peptide analogues (Thioflavin T fibrillation); format: physicochemical; details: maximum ThT signal normalized between hAMY maximum and buffer background; 40° C., shaking, four days; pH 7 per table title
Method in brief: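 ThT fluorescence (450 nm excitation, 480 nm emission; 4 μM dye) was read every 10 min over four days at 40° C under 700 rpm shaking stress, after 1 h in pH 4 acetate or pH 7 phosphate (50 mM). Peak smoothed signal expressed as percent, scaled between buffer background and hAMY maximum.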

[2] = biological target: T1, hAMY3 receptor (Homo sapiens, UniProt O60896+P30988); experiment: cAMP assay for in vitro receptor activation, hAMY3-R; format: cell-based; details: cAMP assay, hAMY3 receptor; read-out: hAMY3R EC50
T1 sequence (P30988 25-474): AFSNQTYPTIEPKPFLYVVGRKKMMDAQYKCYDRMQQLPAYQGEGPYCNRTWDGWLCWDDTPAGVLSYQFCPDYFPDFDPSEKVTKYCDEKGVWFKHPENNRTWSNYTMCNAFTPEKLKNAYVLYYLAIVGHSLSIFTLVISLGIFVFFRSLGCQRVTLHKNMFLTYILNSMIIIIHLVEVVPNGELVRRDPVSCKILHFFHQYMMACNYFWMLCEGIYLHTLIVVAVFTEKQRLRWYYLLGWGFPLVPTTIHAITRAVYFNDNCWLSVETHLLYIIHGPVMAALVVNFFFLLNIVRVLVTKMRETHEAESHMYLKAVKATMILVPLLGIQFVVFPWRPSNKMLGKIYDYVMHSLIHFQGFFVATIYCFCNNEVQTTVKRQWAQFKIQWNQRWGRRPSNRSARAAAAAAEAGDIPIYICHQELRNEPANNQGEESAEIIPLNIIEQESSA
T1 sequence (O60896 24-148 partner): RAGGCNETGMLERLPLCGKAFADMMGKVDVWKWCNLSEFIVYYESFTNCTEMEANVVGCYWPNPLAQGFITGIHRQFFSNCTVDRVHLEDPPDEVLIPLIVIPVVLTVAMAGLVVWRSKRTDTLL
Method in brief: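 Thawed cells from a sub-cloned monoclonal hAMY3-overexpressing line are plated in DPBS containing 0.05% casein and 0.5 mM IBMX. Test compounds are added immediately at graded doses for 30 min at room temperature. Reagents for cAMP detection are then added, and TR-FRET is recorded after one hour.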

SMILES	Max ThT signal (%) [1] [%]	EC50 [2] [nM]
CC[C@H](C)[C@H](NC(=O)[C@H](CCC(N)=O)NC(=O)[C@H](Cc1c[nH]cn1)NC(=O)[C@H](C)NC(=O)[C@H](CC(C)C)NC(=O)[C@H](CCCNC(=N)N)NC(=O)[C@H](CCC(N)=O)NC(=O)[C@@H](NC(=O)[C@@H](NC(=O)[C@@H]1CSSC[C@H](NC(=O)CN)C(=O)N[C@@H](CCCNC(=N)N)C(=O)N[C@@H]([C@@H](C)O)C(=O)NCC(=O)N[C@@H]([C@@H](C)O)C(=O)N1)[C@@H](C)O)C(C)C)C(=O)N[C@@H](Cc1ccc(O)cc1)C(=O)N[C@@H](CCC(N)=O)C(=O)N[C@@H](Cc1ccccc1)C(=O)N[C@H](C(=O)N[C@@H](CC(=O)O)C(=O)N[C@@H](CCCCN)C(=O)N[C@@H](CC(=O)O)C(=O)N[C@@H](CCCCN)C(=O)N[C@@H](CC(=O)O)C(=O)N[C@@H](CC(N)=O)C(=O)N[C@H](C(=O)N[C@@H](C)C(=O)N1CCC[C@H]1C(=O)N[C@@H](CCCNC(=N)N)C(=O)N[C@@H](CO)C(=O)N[C@@H](CC(N)=O)C(=O)N[C@H](C(=O)N[C@@H](CO)C(=O)N1CCC[C@H]1C(=O)N[C@@H](CC(N)=O)C(=O)NCC(=O)N1C[C@H](O)C[C@H]1C(N)=O)C(C)C)C(C)C)[C@@H](C)O [compound 166] (H-GCRTGTCTVQRLAHQIYQFTDKDKDNVAPRSNVSPNG[Hyp]-NH2; disulfide 2-7; N-terminus assumed)	2.000	0.056
CC[C@H](C)[C@H](NC(=O)[C@H](CCCCN)NC(=O)[C@@H](NC(=O)[C@H](CCCNC(=N)N)NC(=O)[C@@H]1CCCN1C(=O)[C@H](C)NC(=O)[C@@H](NC(=O)[C@H](CC(N)=O)NC(=O)[C@H](CC(=O)O)NC(=O)[C@H](CCCCN)NC(=O)[C@H](CC(=O)O)NC(=O)[C@H](CCCCN)NC(=O)[C@H](CC(=O)O)NC(=O)[C@@H](NC(=O)[C@H](Cc1ccccc1)NC(=O)[C@H](CCC(N)=O)NC(=O)[C@H](Cc1ccc(O)cc1)NC(=O)[C@@H](NC(=O)[C@H](CCC(N)=O)NC(=O)[C@H](Cc1c[nH]cn1)NC(=O)[C@H](C)NC(=O)[C@H](CC(C)C)NC(=O)[C@H](CCCNC(N)=O)NC(=O)[C@H](CCC(N)=O)NC(=O)[C@@H](NC(=O)[C@@H](NC(=O)[C@@H]1CSSC[C@H](NC(=O)CN)C(=O)N[C@@H](CCCNC(=N)N)C(=O)N[C@@H](Cc2ccccc2)C(=O)NCC(=O)N[C@@H]([C@@H](C)O)C(=O)N1)[C@@H](C)O)C(C)C)[C@@H](C)CC)[C@@H](C)O)C(C)C)[C@@H](C)O)C(=O)NCC(=O)N1CCC[C@H]1C(=O)N[C@@H](CCC(N)=O)C(=O)NCC(=O)N1C[C@H](O)C[C@H]1C(N)=O [compound 274] (H-GCRFGTCTVQ[Cit]LAHQIYQFTDKDKDNVAPRTKIGPQG[Hyp]-NH2; disulfide 2-7; N-terminus assumed)	26.800	0.019
CC[C@H](C)[C@H](NC(=O)[C@H](CCC(N)=O)NC(=O)[C@H](Cc1c[nH]cn1)NC(=O)[C@H](C)NC(=O)[C@H](CC(C)C)NC(=O)[C@H](Cc1c[nH]c2ccccc12)NC(=O)[C@H](CCC(N)=O)NC(=O)[C@@H](NC(=O)[C@@H](NC(=O)[C@@H]1CSSC[C@H](NC(=O)CN)C(=O)N[C@@H](CCCNC(=N)N)C(=O)N[C@@H](Cc2ccccc2)C(=O)NCC(=O)N[C@@H]([C@@H](C)O)C(=O)N1)[C@@H](C)O)C(C)C)C(=O)N[C@@H](Cc1ccc(O)cc1)C(=O)N[C@@H](CCC(N)=O)C(=O)N[C@@H](Cc1ccccc1)C(=O)N[C@H](C(=O)N[C@@H](CC(=O)O)C(=O)N[C@@H](CCCCN)C(=O)N[C@@H](CC(=O)O)C(=O)N[C@@H](CCCCN)C(=O)N[C@@H](CC(=O)O)C(=O)N[C@@H](CC(N)=O)C(=O)N[C@H](C(=O)N[C@@H](C)C(=O)N1CCC[C@H]1C(=O)N[C@@H](CCCNC(=N)N)C(=O)N[C@H](C(=O)N[C@@H](CCCCN)C(=O)N[C@H](C(=O)N[C@@H](CO)C(=O)N1CCC[C@H]1C(=O)N[C@@H](CC(N)=O)C(=O)NCC(=O)N1C[C@H](O)C[C@H]1C(N)=O)[C@@H](C)CC)[C@@H](C)O)C(C)C)[C@@H](C)O [compound 337] (H-GCRFGTCTVQWLAHQIYQFTDKDKDNVAPRTKISPNG[Hyp]-NH2; disulfide 2-7; N-terminus assumed)	16.800	0.019

Continued, values first:

Max ThT signal (%) [1] [%]	EC50 [2] [nM]	SMILES
6.800	0.076	CC[C@H](C)[C@H](NC(=O)[C@H](CCC(N)=O)NC(=O)[C@H](Cc1c[nH]cn1)NC(=O)[C@H](C)NC(=O)[C@H](CC(C)C)NC(=O)[C@H](CCCNC(=N)N)NC(=O)[C@H](CCC(N)=O)NC(=O)[C@@H](NC(=O)[C@@H](NC(=O)[C@@H]1CSSC[C@H](NC(=O)CN)C(=O)N[C@@H](CCCNC(=N)N)C(=O)N[C@@H]([C@@H](C)O)C(=O)NCC(=O)N[C@@H]([C@@H](C)O)C(=O)N1)[C@@H](C)O)C(C)C)C(=O)N[C@@H](Cc1ccc(O)cc1)C(=O)N[C@@H](CCC(N)=O)C(=O)N[C@@H](Cc1ccccc1)C(=O)N[C@H](C(=O)N[C@@H](CC(=O)O)C(=O)N[C@@H](CCCCN)C(=O)N[C@@H](CC(=O)O)C(=O)N[C@@H](CCCCN)C(=O)N[C@@H](CC(=O)O)C(=O)N[C@@H](CC(N)=O)C(=O)N[C@H](C(=O)N[C@@H](C)C(=O)N1CCC[C@H]1C(=O)N[C@@H](CCCNC(=N)N)C(=O)N[C@H](C(=O)N[C@@H](CC(N)=O)C(=O)N[C@H](C(=O)N[C@@H](CO)C(=O)N1CCC[C@H]1C(=O)N[C@@H](CCC(N)=O)C(=O)NCC(=O)N[C@@H](Cc1ccc(O)cc1)C(N)=O)C(C)C)[C@@H](C)O)C(C)C)[C@@H](C)O [compound 176] (H-GCRTGTCTVQRLAHQIYQFTDKDKDNVAPRTNVSPQGY-NH2; disulfide 2-7; N-terminus assumed)
25.450	0.003	CC[C@H](C)[C@H](NC(=O)[C@H](CCC(N)=O)NC(=O)[C@H](Cc1c[nH]cn1)NC(=O)[C@H](C)NC(=O)[C@H](CC(C)C)NC(=O)[C@H](CCCNC(N)=O)NC(=O)[C@H](CCC(N)=O)NC(=O)[C@@H](NC(=O)[C@@H](NC(=O)[C@@H]1CSSC[C@H](NC(=O)CN)C(=O)N[C@@H](CCCNC(=N)N)C(=O)N[C@@H](Cc2ccccc2)C(=O)NCC(=O)N[C@@H]([C@@H](C)O)C(=O)N1)[C@@H](C)O)C(C)C)C(=O)N[C@@H](Cc1ccc(O)cc1)C(=O)N[C@@H](CCC(N)=O)C(=O)N[C@@H](Cc1ccccc1)C(=O)N[C@H](C(=O)N[C@@H](CC(=O)O)C(=O)N[C@@H](CCCCN)C(=O)N[C@@H](CC(=O)O)C(=O)N[C@@H](CCCCN)C(=O)N[C@@H](CC(=O)O)C(=O)N[C@@H](CC(N)=O)C(=O)N[C@H](C(=O)N[C@@H](C)C(=O)N1CCC[C@H]1C(=O)N[C@@H](CCCNC(=N)N)C(=O)N[C@H](C(=O)N[C@@H](CC(N)=O)C(=O)N[C@H](C(=O)NCC(=O)N1CCC[C@H]1C(=O)N[C@@H](CC(N)=O)C(=O)NCC(=O)N1C[C@H](O)C[C@H]1C(N)=O)C(C)C)[C@@H](C)O)C(C)C)[C@@H](C)O [compound 270] (H-GCRFGTCTVQ[Cit]LAHQIYQFTDKDKDNVAPRTNVGPNG[Hyp]-NH2; disulfide 2-7; N-terminus assumed)
8.900	0.007	CC[C@H](C)[C@H](NC(=O)[C@H](CCC(N)=O)NC(=O)[C@H](Cc1c[nH]cn1)NC(=O)[C@H](C)NC(=O)[C@H](CC(C)C)NC(=O)[C@H](CCCNC(=N)N)NC(=O)[C@H](CCC(N)=O)NC(=O)[C@@H](NC(=O)[C@@H](NC(=O)[C@@H]1CSSC[C@H](NC(=O)CN)C(=O)N[C@@H](CCCNC(=N)N)C(=O)N[C@@H](Cc2ccccc2)C(=O)NCC(=O)N[C@@H]([C@@H](C)O)C(=O)N1)[C@@H](C)O)C(C)C)C(=O)N[C@@H](Cc1ccc(O)cc1)C(=O)N[C@@H](CCC(N)=O)C(=O)N[C@@H](Cc1ccccc1)C(=O)N[C@H](C(=O)N[C@@H](CC(=O)O)C(=O)N[C@@H](CCCCN)C(=O)N[C@@H](CC(=O)O)C(=O)N[C@@H](CCCCN)C(=O)N[C@@H](CC(=O)O)C(=O)N[C@@H](CC(N)=O)C(=O)N[C@H](C(=O)N[C@@H](C)C(=O)N1CCC[C@H]1C(=O)N[C@@H](CCCNC(=N)N)C(=O)N[C@H](C(=O)N[C@@H](CC(N)=O)C(=O)N[C@H](C(=O)NCC(=O)N1CCC[C@H]1C(=O)N[C@@H](CCC(N)=O)C(=O)NCC(=O)N[C@@H](Cc1ccc(O)cc1)C(N)=O)C(C)C)[C@@H](C)O)C(C)C)[C@@H](C)O [compound 362] (H-GCRFGTCTVQRLAHQIYQFTDKDKDNVAPRTNVGPQGY-NH2; disulfide 2-7)
